Data on four compounds can be found in patent US20100267752A1, “3-HYDROQUINAZOLIN-4-ONE DERIVATIVES FOR USE AS STEAROYL CoA DESATURASE INHIBITORS” (Gilead Palo Alto, Inc., priority 2008, published 2010).

The test addresses T1, SCD (stearoyl-CoA desaturase) (Rattus norvegicus, UniProt P07308).
T1 construct: The rat liver microsomes were collected according to the procedure described in Ozols (1990) Methods Enzm, 182:225; from tissue; host or cells: liver microsomes of male Sprague Dawley rats, SCD induced by a carbohydrate-rich diet
T1 sequence (P07308 1-358): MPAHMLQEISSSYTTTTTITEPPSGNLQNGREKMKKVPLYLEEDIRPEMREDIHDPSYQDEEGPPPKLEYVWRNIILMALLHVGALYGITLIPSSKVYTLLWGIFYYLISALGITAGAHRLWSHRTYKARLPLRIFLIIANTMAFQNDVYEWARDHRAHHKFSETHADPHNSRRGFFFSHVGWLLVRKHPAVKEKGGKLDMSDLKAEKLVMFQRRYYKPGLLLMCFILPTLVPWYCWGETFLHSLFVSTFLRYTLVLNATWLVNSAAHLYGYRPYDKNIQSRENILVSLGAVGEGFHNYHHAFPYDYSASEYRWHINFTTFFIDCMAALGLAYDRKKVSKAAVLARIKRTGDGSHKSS
In words: SCD assay with rat liver microsomes, [3H]stearoyl CoA (adapted from Talamo and Bloch). Format: biochemical. The settings on record: rat liver microsomes 0.2 mg/ml final, 30 min preincubation, 45 min reaction at room temperature. From the text: The identification of compounds of the invention as SCD inhibitors was readily accomplished using the SCD enzyme and microsomal assay procedure described in Talamo and Bloch (1969) Analytical Biochemistry 29:300-304.
The rat liver microsomes were collected according to the procedure described in Ozols (1990) Methods Enzm, 182:225.
Male Sprague Dawley Rats were placed on regimented fasting protocol for one week to stimulate SCD enzymatic activity. 48-hour periods were alternated between feeding and fasting to induce and down-regulate SCD activity with SCD activity being induced via carbohydrate rich diet prior to liver perfusion and collection.
The rats were anesthetized with Isoflurane inhalation anesthetic, the liver perfused with cold phosphate buffered saline (PBS), weighed, and chilled in cold homogenization buffer (250 mM sucrose, […] Tris, 1 mM EDTA, pH 7.6.
The livers were finely minced and placed in homogenization tube. 40 mL of homogenization buffer was added to the homogenization tube and the liver homogenized and centrifuged in a pre-chilled SLA-600 TC at 800G rotor for 10 min at 4° C.
Following centrifugation, the supernatant was collected and the pellet removed and discarded. The supernatant was centrifuge at 10,000 G for 35 minutes. Following centrifugation, the supernatant was collect and the pellet discarded. The supernatant was then centrifuged in a pre-chilled 45-Ti rotor at 130,000 G (41,000 RPM) for 90 minutes at 4° C.
The supernatant was then aspirated off and the collected microsomal pellet washed in 25 mL of Glycerol PBS (1×PBS 7.4, 20% Glycerol) and resuspended in 4-5 volumes of Glycerol PBS.
The protein concentration of the microsomal preparation was determined by BCA assay (Pierce) and the microsomes were aliquoted and stored at −80° C.
SCD was determined in the desaturase assay buffer. This assay buffer contained 0.1 M Tris buffer, pH 7.2, 2 mM NADH, 4.8 mM ATP, 0.5 mM CoA, 4.8 mM MgCl2, and 0.1% BSA.
The Procedure for the SCD Assay (Adapted from Talamo and Bloch (1969) Analytical Biochemistry 29:300-304)
1 μl of each compound of Formula I was added to an assay plate by a low volume (0.5-10 μL) multichannel pipette. A DMSO control was also prepared. The microsomes were quickly thawed and added to assay buffer so that a concentration of 0.4 mg/ml was achieved (0.2 mg/ml assay final). 50 μl of the microsome suspension in assay buffer was then added into each well in the compound assay plate, the plate was covered, and the microsomes preincubated with the compounds for 30 minutes on the orbital shaker, 50-75 rpm, at room temperature. […]
Background: Liver microsomes are a subcellular fraction often used to study metabolism.
In the case of `O=C(Nc1ccc2c(=O)[nH]c(Cc3ccc(Cl)c(Cl)c3)nc2c1)OCc1ccccc1` [I., benzyl 2-(3,4-dichlorobenzyl)-4-oxo-3,4-dihydroquinazolin-7-ylcarbamate], inhibition was half-maximal at 2500 nM (IC50).

For `O=C(Nc1ccc2nc(Cc3ccc(Cl)c(Cl)c3)[nH]c(=O)c2c1)OCc1ccccc1` [II., benzyl 2-(3,4-dichlorobenzyl)-4-oxo-3,4-dihydroquinazolin-6-ylcarbamate], it took 1200 nM to reach half-maximal inhibition (IC50).

The compound `CC(=O)OCC(=O)Nc1ccc2nc(Cc3ccc(Cl)c(Cl)c3)[nH]c(=O)c2c1` [III., 2-(2-(3,4-dichlorobenzyl)-4-oxo-3,4-dihydroquinazolin-6-ylamino)-2-oxoethyl acetate] returned a 50% inhibitory concentration (IC50) of 750 nM.

Take `O=C(CO)Nc1ccc2nc(Cc3ccc(Cl)c(Cl)c3)[nH]c(=O)c2c1` [IV., N-(2-(3,4-dichlorobenzyl)-4-oxo-3,4-dihydroquinazolin-6-yl)-2-hydroxyacetamide]: the IC50 is 930 nM.

Broadly, the IC50 is the point on the concentration scale where inhibition reaches its midpoint. Low readings indicate greater potency in that assay, high ones weaker potency in that assay.
